Assay results: US9796753B2, “N-substituted indenoisoquinolines and syntheses thereof” (Purdue Research Foundation, priority 2005, dated 2017)
Read-outs that look alike come from different tables or passages of the source.

What was measured:
Assay type in all cases: cell-based
prostate DU-145 = test: COMPARE screening (NCI human cancer cell line screen), cytotoxicity GI50
Method: (§1) Selected compounds were tested for antiproliferative activity in the National Cancer Institute's developmental therapeutics assay 60 cell line screen (NCI60). The cells were incubated with the tested compounds at 100, 10, 1, 0.1, and 0.01 μM concentrations for 48 h before treatment with sulforhodamine B dye. Optical densities were recorded, and their ratios relative to that of the control were plotted as percentage growth against the log 10 of the tested compound concentrations.

CNS SF-539 = test: as above
Method: as §1

renal SN12C = test: as above
Method: as §1

colon HCT-116 = test: as above
Method: as §1

ovarian OVCAR-3 = test: as above
Method: as §1

melanoma UACC-62 = test: as above
Method: as §1

[1] = test system: all human cancer cell lines successfully tested; test: NCI screen mean graph midpoint (MGM) for growth inhibition
Method: COMPARE screening. The compounds described herein were examined for antiproliferative activity against the human cancer cell lines in the National Cancer Institute screen (COMPARE screening), in which the activity of each compound was evaluated with approximately 55 different cancer cell lines of diverse tumor origins. […] Therefore, the MGM value represents an overall assessment of toxicity of the compound across numerous cell lines.
as §1
The cytotoxicities of the compounds to cultured cancer cells were measured in the National Cancer Institute's 60 cell line assay (a.k.a. NCI-60).

breast MDA-MB-435 = test: COMPARE screening (NCI human cancer cell line screen), cytotoxicity GI50
lung HOP-62 = test: as above
Method: as §1

[2] = Homo sapiens, DU-145, read-out: cytotoxicity (GI50) prostate DU-145
[3] = Homo sapiens, CNSSF-539, read-out: cytotoxicity (GI50) CNS SF-539
[4] = Homo sapiens, SN12C, read-out: cytotoxicity (GI50) renal SN12C
[5] = Homo sapiens, HCT-116, read-out: cytotoxicity (GI50) colon HCT-116
[6] = Homo sapiens, OVCAR-3, read-out: cytotoxicity (GI50) ovarian OVCAR-3
[7] = Homo sapiens, UACC-62, read-out: cytotoxicity (GI50) melanoma UACC-62
[8] = Homo sapiens, MDA-MB-435, read-out: cytotoxicity (GI50) breast MDA-MB-435
[9] = Table 1, average GI50 of all cell lines tested (approximately 55), test range 10^−8 to 10^−4 molar
[10] = Homo sapiens, HOP-62, read-out: cytotoxicity (GI50) lung HOP-62
[11] = all human cancer cell lines successfully tested

SMILES | GI50 (prostate DU-145) [µM] | GI50 (renal SN12C) [µM] | GI50 (colon HCT-116) [µM] | GI50 (ovarian OVCAR-3) [µM] | GI50 (melanoma UACC-62) [µM] | MGM (mean GI50 across cell lines) [1, 9] [µM] | GI50 (breast MDA-MB-435) [µM] | GI50 (lung HOP-62) [µM] | also measured
COc1cc2c3c(oc(=O)c2cc1OC)-c1ccccc1C3=O [Compound 4a, 2,3-dimethoxybenz[d]indeno[1,2-b]pyran-5,11-dione] | – | – | – | – | – | – | – | – | GI50 (prostate DU-145; [2]): ≥ 100 µM; GI50 (CNS SF-539; [3]): ≥ 100 µM; GI50 (renal SN12C; [4]): ≥ 100 µM; GI50 (colon HCT-116; [5]): ≥ 100 µM; GI50 (ovarian OVCAR-3; [6]): ≥ 100 µM; GI50 (melanoma UACC-62; [7]): ≥ 100 µM; MGM (mean GI50 across cell lines) ([1]; Homo sapiens): ≥ 100 µM; GI50 (breast MDA-MB-435; [8]): ≥ 100 µM
COc1cc2c3c(n(CCCN(C)C)c(=O)c2cc1OC)-c1ccccc1C3=O [Compound 5a] | 4.47 | 11 | 2.45 | 5.89 | 6.61 | 6.17 | 7.08 | – | GI50 (CNS SF-539): 6.17 µM
CC(C)(C)OC(=O)NCCCCCCCn1c2c(c3ccccc3c1=O)C(=O)c1ccccc1-2 [Compound 5af, 6-(7′-tert-BOC-Aminoheptyl)-5,6-dihydro-5,11-dioxo-11H-indeno[1,2-c]isoquinoline] | 31.6 | 74.1 | 17.4 | 33.9 | 20 | 30.9 | 81.3 | – | GI50 (CNS SF-539): 20.9 µM
CC(C)(C)OC(=O)NCCCCCCCCCn1c2c(c3ccccc3c1=O)C(=O)c1ccccc1-2 [Compound 5ah, 6-(9′-tert-BOC-Aminononyl)-5,6-dihydro-5,11-dioxo-11H-indeno[1,2-c]isoquinoline] | > 100 | 77.6 | – | 28.8 | 17.4 | 50.1 | > 100 | 24.5 | GI50 (CNS SF-539): 17.8 µM
O=C1c2ccccc2-c2c1c1ccccc1c(=O)n2Cc1ccccn1 [Compound 5aw, 5,6-Dihydro-5,11-dioxo-6-(2-pyridylmethyl)-11H-indeno[1,2-c]isoquinoline] | – | – | – | – | – | 15.1 | – | – | GI50 (prostate DU-145; [2]): 13.5 µM; GI50 (lung HOP-62; [10]): 11.2 µM; GI50 (CNS SF-539; [3]): 12.3 µM; GI50 (renal SN12C; [4]): 28.2 µM; GI50 (ovarian OVCAR-3; [6]): 13.8 µM; GI50 (melanoma UACC-62; [7]): 10.7 µM; GI50 (breast MDA-MB-435; [8]): 3.09 µM
Cl.O=C1c2ccccc2-c2c1c1ccccc1c(=O)n2CCc1ccccn1 [Compound 5ay, 5,6-Dihydro-5,11-dioxo-6-(2-pyridylethyl)-11H-indeno[1,2-c]isoquinoline Hydrochloride] | – | – | – | – | – | 53.7 | – | – | GI50 (prostate DU-145; [2]): 74.1 µM; GI50 (lung HOP-62; [10]): 21.4 µM; GI50 (CNS SF-539; [3]): 17.4 µM; GI50 (renal SN12C; [4]): 77.6 µM; GI50 (ovarian OVCAR-3; [6]): > 100 µM; GI50 (melanoma UACC-62; [7]): 27.5 µM; GI50 (breast MDA-MB-435; [8]): 5.13 µM
O=C1c2ccccc2-c2c1c1ccc([N+](=O)[O-])cc1c(=O)n2CCCBr [Compound 5bb, 6-(3-Bromopropyl)-5,6-dihydro-5,11-dioxo-3-nitro-11H-indeno[1,2-c]isoquinoline] | – | – | – | – | – | 40.0 | – | – | GI50 (prostate DU-145; [2]): > 100 µM; GI50 (CNS SF-539; [3]): > 100 µM; GI50 (renal SN12C; [4]): > 100 µM; GI50 (colon HCT-116; [5]): 3.47 µM; GI50 (ovarian OVCAR-3; [6]): > 100 µM; GI50 (melanoma UACC-62; [7]): > 100 µM; GI50 (breast MDA-MB-435; [8]): > 100 µM
COc1ccc2c(c1)C(=O)c1c-2n(CCCI)c(=O)c2cc([N+](=O)[O-])ccc12 [Compound 5bd] | 0.034 | 0.309 | 0.046 | 3.02 | 0.148 | – | 1.48 | – | GI50 (CNS SF-539): 0.058 µM; MGM (mean graph midpoint for growth inhibition) [1, 9]: 0.328 ± 0.046 µM
[N-]=[N+]=NCCCn1c2c(c3ccccc3c1=O)C(=O)c1ccccc1-2 [Compound 5bh] | 29.5 | 25.1 | 4.9 | 7.94 | 19.5 | 12.3 | 7.76 | 7.59 | –
COc1ccc2c(c1)C(=O)c1c-2n(CCCN2CCOCC2)c(=O)c2cc([N+](=O)[O-])ccc12 [Compound 5bj] | – | < 0.01 | < 0.01 | < 0.01 | < 0.01 | – | < 0.01 | < 0.01 | MGM (mean graph midpoint for growth inhibition) [1, 9]: 0.014 ± 0.001 µM
CN(C)CCCn1c2c(c3ccc([N+](=O)[O-])cc3c1=O)C(=O)c1ccccc1-2 [Compound 5c] | – | 4.17 | 6.46 | 25.7 | 7.08 | 9.77 | > 100 | – | –
CN(C)CCCn1c2c(c3ccccc3c1=O)C(=O)c1ccccc1-2 [Compound 5d] | 1.32 | 0.91 | 0.58 | 1.7 | 0.51 | – | 2.82 | – | –
O=C1c2ccccc2-c2c1c1ccccc1c(=O)n2CCCn1ccnc1 [Compound 5g] | 1.41 | 1.66 | 1.41 | 1.66 | 0.79 | 1.86 | – | – | GI50 (CNS SF-539): 2.34 µM
O=C1c2ccccc2-c2c1c1ccc([N+](=O)[O-])cc1c(=O)n2CCN1CCOCC1 [Compound 5i, 5,6-Dihydro-6-(2-morpholin-4-yl-1-ethyl)-3-nitro-5,11-dioxo-11H-indeno[1,2-c]isoquinoline] | – | – | – | – | – | 74.1 | – | – | GI50 (prostate DU-145; [2]): 61.7 µM; GI50 (lung HOP-62; [10]): 52.5 µM; GI50 (renal SN12C; [4]): 58.9 µM; GI50 (colon HCT-116; [5]): > 100 µM; GI50 (ovarian OVCAR-3; [6]): > 100 µM; GI50 (melanoma UACC-62; [7]): 83.2 µM; GI50 (breast MDA-MB-435; [8]): > 100 µM
COc1cc2c3c(n(CCCn4ccnc4)c(=O)c2cc1OC)-c1cc2c(cc1C3=O)OCO2.Cl [Compound 5l] | – | – | – | – | – | – | – | – | MGM (mean graph midpoint for growth inhibition) [1, 9]: 0.079 ± 0.023 µM
CN(CCCn1c2c(c3ccccc3c1=O)C(=O)c1ccccc1-2)CCCn1c2c(c3ccccc3c1=O)C(=O)c1ccccc1-2 [Compound 12d, Bis{(5,6-dihydro-5,11-diketo-11H-indeno[1,2-c]isoquinoline)-6-propyl}methylamine] | – | – | – | – | – | – | – | – | GI50 (CNS SF-539; CNS SF-539, concentration corresponding to 50% growth inhibition, read-out: cytotoxicity (GI50 in μM) CNS SF-539): 1.12 µM; GI50 (renal SN12C; renal SN12C, concentration corresponding to 50% growth inhibition, read-out: cytotoxicity (GI50 in μM) renal SN12C): 0.589 µM; GI50 (ovarian OVCAR-3; ovarian OVCAR-3, concentration corresponding to 50% growth inhibition, read-out: cytotoxicity (GI50 in μM) ovarian OVCAR-3): 1.2 µM; GI50 (melanoma UACC-62; melanoma UACC-62, concentration corresponding to 50% growth inhibition, read-out: cytotoxicity (GI50 in μM) melanoma UACC-62): 2 µM; MGM (mean graph midpoint for growth inhibition) [1, 11]: 0.934 ± 0.476 µM; GI50 (breast MDA-MB-435; breast MDA-MB-435, concentration corresponding to 50% growth inhibition, read-out: cytotoxicity (GI50 in μM) breast MDA-MB-435): 1.55 µM
Cl.O=C1c2ccccc2-c2c1c1ccccc1c(=O)n2CCCCNCCCn1c2c(c3ccccc3c1=O)C(=O)c1ccccc1-2 [Compound 14b, Bis{(5,6-dihydro-5,11-diketo-11H-indeno[1,2-c]isoquinoline)}-(6-propyl,6′-butyl)amine Hydrochloride] | 0.288 | 0.132 | 0.056 | 0.372 | 0.513 | – | 0.562 | 0.028 | MGM (mean graph midpoint for growth inhibition) [1, 11]: 0.357 ± 0.087 µM
O=C(O)C(F)(F)F.O=C(O)C(F)(F)F.O=C1c2ccccc2-c2c1c1ccccc1c(=O)n2CCNCCNCCn1c2c(c3ccccc3c1=O)C(=O)c1ccccc1-2 [Compound 14c, Bis-1,2-{(5,6-dihydro-5,11-diketo-11H-indeno[1,2-c]isoquinoline)-6-ethylamino}ethane Bis(trifluoroacetate)] | 0.182 | 0.178 | 0.029 | 1.66 | 0.331 | – | 1.66 | 0.032 | MGM (mean graph midpoint for growth inhibition) [1, 11]: 0.427 ± 0.01 µM
O=C(O)C(F)(F)F.O=C(O)C(F)(F)F.O=C1c2ccccc2-c2c1c1ccccc1c(=O)n2CCCNCCNCCCn1c2c(c3ccccc3c1=O)C(=O)c1ccccc1-2 [Compound 14e, Bis-1,2-{(5,6-dihydro-5,11-diketo-11H-indeno[1,2-c]isoquinoline)-6-propylamino}ethane Bis(trifluoroacetate)] | < 0.01 | < 0.01 | < 0.01 | 1.02 | 0.052 | – | 0.933 | < 0.01 | MGM (mean graph midpoint for growth inhibition) [1, 11]: 0.152 ± 0.062 µM
COc1cc2c3c(n(CCCN(CCCN(CCCn4c5c(c6ccccc6c4=O)C(=O)c4ccccc4-5)C(=O)OC(C)(C)C)C(=O)OC(C)(C)C)c(=O)c2cc1OC)-c1cc2c(cc1C3=O)OCO2 [Compound 16a, 1,3-{6-(3-tert-Butyloxycarbonylamino-1-propyl)-5,6-dihydro-2,3-dimethoxy-8,9-methylenedioxy-5,11-dioxo-11H-indeno[1,2-c]isoquinoline}-{5′,6′-dihydro-6′-[(3′-tert-butyloxycarbonylamino)-1′-propyl]-5′,11′-dioxo-11′H-indeno[1,2-c]isoquinoline}propane] | – | > 100 | > 100 | – | > 100 | – | > 100 | > 100 | MGM (mean GI50 across cell lines) [1, 11]: 68.0 µM
